The values that follow come from article PMC9886271 (Drug metabolism and pharmacokinetics, 2022).

Entries after “also recorded” stand apart in the source; their conditions may differ. Counter-ions that a name gives are not always drawn.

A short description of data set [1]: Tissue distribution after single i.v. injection. The following applies: for rank order of the extent of exposure of the organs to the parent drug: i.v. administration; for Metabolite Tissue AUC0–8h, Brain / Metabolite Tissue AUC0–8h, Heart / Metabolite Tissue AUC0–8h, Kidney / Metabolite Tissue AUC0–8h, Liver / Metabolite Tissue AUC0–8h, Lung / Metabolite Tissue AUC0–8h, Spleen: after 2.0 mg/kg i.v. of the parent drug; for rank order of the extent of exposure of the organs to the metabolite: after i.v. parent drug.

The subject of data set [2] is human liver microsomes (HLM). To be noted: HLM; for Vmax, best fit value: formation of EDDP/d6-EDDP, mean ± S.E.
In data set [3] the test system is mouse liver microsomes (MLM). To be noted: MLM; for Vmax, best fit value: formation of EDDP/d6-EDDP, mean ± S.E.
Data set [4] deals with postoperative mechanical hypersensitivity in mice. Nature of the data set: Postoperative pain model. The following applies: post-operative treatment, 3 mg/kg i.p., once daily for 4 days; for effect on postoperative mechanical hypersensitivity: 3 mg/kg.
For a further data set, the system named is Swiss mice. To be noted: intraperitoneal (i.p.); cited from earlier work.
The nature of data set [5]: In vivo toxicity, Up-and-Down method, single i.v. dose via tail vein. To be noted: male, CD-1, mouse, iv.
The conditions of data set [6]: human, pH 7.4.
The conditions of data set [7]: male, CD-1, mouse, pH 7.4.
A short description of data set [8]: Plasma pharmacokinetics after single i.v. injection. The following applies: for AUC0–8h (metabolite) / Cmax (metabolite) / Tmax (metabolite): metabolite in plasma after 2.0 mg/kg i.v. of the parent drug.

For `[2H]C([2H])([2H])CC(=O)C(CC(C)N(C([2H])([2H])[2H])C([2H])([2H])[2H])(c1ccccc1)c1ccccc1` (racemic) [d9-methadone, (±)-d9-methadone], the “rank order of the extent of exposure of the organs to the parent drug” value in data set [1] was “lungs > kidneys ≈ liver > spleen > heart > brain”. In data set [2], the “deuteration effect on Vmax (HVmax/DVmax)” value turned out to be 2.5 and the “Vmax, best fit value” is given as 438 ± 27 pmol·min^−1·mg of protein^−1. Moreover, in data set [3], the “deuteration effect on Vmax (HVmax/DVmax)” value is listed as 2.5 and the “Vmax, best fit value” is 1033 ± 45 pmol·min^−1·mg of protein^−1. Moreover, in data set [4], the “development of analgesic tolerance” value is “no development of the apparent analgesic tolerance” and the “effect on postoperative mechanical hypersensitivity” value is reported as “alleviated hypersensitivity after each systemic injection; also recorded: significantly relieved postoperative mechanical hypersensitivity”.

Take `CCC(=O)C(CC(C)N(C)C)(c1ccccc1)c1ccccc1` (racemic) [methadone, (±)-Methadone hydrochloride, reference compound]: the LD50 (as a rule, the dose expected to kill half of the subjects tested) in the data set with Swiss mice is 41 mg/kg. Also, in data set [1], the “rank order of the extent of exposure of the organs to the parent drug” value is “kidneys ≈ lungs > spleen > liver > heart > brain”. Also, the LD50 at 20 min in data set [5] is 11.6 mg/kg. In addition, the “Vmax, best fit value” in [2] was 1116 ± 17 pmol·min^−1·mg of protein^−1; in [3], 2631 ± 121 pmol·min^−1·mg of protein^−1. For the same compound, the Km (usually the substrate concentration at which the rate is half of its maximum) at 20 min in data set [6] was determined as 82.9 ± 3.7 µM. Further, the Km at 10 min in data set [7] came out at 53.5 ± 5.1 µM. Further, the “effect on postoperative mechanical hypersensitivity” value in data set [4] is “completely ineffective”; in [4] (listed as Methadone), “unable to reduce the postoperative mechanical hypersensitivity”.

As for `[2H]C([2H])([2H])C1CC(c2ccccc2)(c2ccccc2)C(=CC)N1C([2H])([2H])[2H]` (stereo not drawn) [d6-EDDP], the “concentration of the metabolite in the brain” value in [1] (after 2.0 mg/kg i.v. d9-methadone, every time point) is recorded as “below the lower limit of quantification”. In data set [1], the “Metabolite Tissue AUC0–8h, Brain” value is listed as “<LLOQ^§”; the “Metabolite Tissue AUC0–8h, Heart” value stood at 1243 ± 254 ng·h/g; the “Metabolite Tissue AUC0–8h, Kidney” value stood at 1562 ± 207 ng·h/g; the “Metabolite Tissue AUC0–8h, Liver” value was 4375 ± 513 ng·h/g. In data set [1], the “Metabolite Tissue AUC0–8h, Lung” value is given as 9886 ± 614 ng·h/g; the “Metabolite Tissue AUC0–8h, Spleen” value turned out to be 411 ± 33 ng·h/g; the “rank order of the extent of exposure of the organs to the metabolite” value is “lungs > liver > kidney ≈ heart > spleen”. Besides, in data set [8] (after i.v. parent drug), the “plasma AUC0–8h of d6-EDDP, fold lower than AUC0–8h of EDDP” value worked out at 2 fold and the “plasma Cmax of d6-EDDP, fold lower than Cmax of EDDP” value worked out at 5 fold. Moreover, in data set [8], the “AUC0–8h (metabolite)” value was 138 ± 25 ng·h/mL, the “Cmax (metabolite)” value is reported as 48 ± 7 ng/mL and the “Tmax (metabolite)” value stood at 19.8 ± 8.4 min.

Regarding `CC=C1N(C)C(C)CC1(c1ccccc1)c1ccccc1` (stereo not drawn) [EDDP, 2-ethylidene-1,5-dimethyl-3,3,-diphenylpyrrolidine], in data set [1], the “Metabolite Tissue AUC0–8h, Brain” value was determined as 8.96 ± 5.26 ng·h/g; the “Metabolite Tissue AUC0–8h, Heart” value turned out to be 2155 ± 144 ng·h/g; the “Metabolite Tissue AUC0–8h, Kidney” value is on record as 2815 ± 226 ng·h/g; the “Metabolite Tissue AUC0–8h, Liver” value is listed as 5608 ± 218 ng·h/g. In data set [1], the “Metabolite Tissue AUC0–8h, Lung” value came out at 9672 ± 856 ng·h/g; the “Metabolite Tissue AUC0–8h, Spleen” value was 622 ± 45 ng·h/g; the “rank order of the extent of exposure of the organs to the metabolite” value is recorded as “lungs > liver > kidney ≈ heart > spleen”. Also, in [8], the “AUC0–8h (metabolite)” value turned out to be 257 ± 29 ng·h/mL, the “Cmax (metabolite)” value turned out to be 233 ± 28 ng/mL and the “Tmax (metabolite)” value was found to be 8.4 ± 6 min.
